PubChem BioAssay (NCI)
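Grown in 96-well plates, cells were treated for 48 hours with each compound at five concentrations. Insufficient inhibition: endpoint recorded as highest concentration tested. The concentration for full growth arrest is given as TGI.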

Legend:
Test in all cases: NCI anticancer screen, dose series, 48 h
786-0 renal = system: 786-0 renal
CCRF-CEM leukemia = system: CCRF-CEM leukemia
NCI-H522 lung = system: NCI-H522 lung
NCI/ADR-RES ovarian = system: NCI/ADR-RES ovarian
SF-268 CNS = system: SF-268 CNS
SF-295 CNS = system: SF-295 CNS
SF-539 CNS = system: SF-539 CNS
UACC-257 melanoma = system: UACC-257 melanoma
OVCAR-8 ovarian = system: OVCAR-8 ovarian
TK-10 renal = system: TK-10 renal

| SMILES | TGI (786-0 renal) [µM] | TGI (CCRF-CEM leukemia) [µM] | TGI (NCI-H522 lung) [µM] | TGI (NCI/ADR-RES ovarian) [µM] | TGI (SF-268 CNS) [µM] | TGI (SF-295 CNS) [µM] | TGI (SF-539 CNS) [µM] | TGI (UACC-257 melanoma) [µM] | TGI (OVCAR-8 ovarian) [µM] | TGI (TK-10 renal) [µM] |
| --- | --- | --- | --- | --- | --- | --- | --- | --- | --- | --- |
| CN(C)c1cccc2c(S(=O)(=O)NCCN)cccc12 | > 100 | > 100 | > 100 | > 100 | > 100 | > 100 | > 100 | > 100 | – | – |
| COc1ccc(S(=O)(=O)NC(CCC(=O)NC(N)=O)C(=O)NC(N)=O)cc1 (stereo not drawn) | > 100 | > 100 | > 100 | > 100 | – | > 100 | > 100 | > 100 | > 100 | > 100 |
| COc1cc2c(cc1OC)C1=C(C=O)c3ccc(OC)c(OC)c3C(O)N1CC2 (stereo not drawn) | > 100 | > 100 | 75.2 | 79.6 | > 100 | > 100 | 64.8 | 50 | – | 72.8 |
| CC1(C)C(=O)/C(=C/c2ccccc2)C(C)(C)C1(C)C | > 100 | > 71.5 | > 100 | > 100 | – | > 100 | > 100 | > 100 | > 100 | > 100 |
| CCNC(=S)N/N=C(/C)c1cccc(/C(C)=N\NC(=S)NCC)n1 | > 100 | > 19.1 | 24.5 | 21.1 | > 100 | > 38.8 | 23.7 | 31.6 | 16.9 | 19.1 |
| COc1ccc2oc(=O)c(-c3cc4c(c(C)n3)c(=O)oc3ccc(OC)cc34)cc2c1 | 4.34 | > 100 | > 100 | > 100 | > 100 | > 100 | > 100 | > 100 | > 100 | > 100 |
| O=S(Nc1ccccc1)c1ccc(Cl)cc1 (stereo not drawn) | > 100 | > 100 | > 100 | > 100 | 82.9 | > 100 | 46.7 | > 100 | > 100 | > 100 |
| O=C(/C=C/c1ccccc1)c1cc(CN2CCOCC2)c(O)c(CN2CCOCC2)c1 | 29 | 16.7 | > 100 | > 100 | 46.6 | 34.8 | 32.6 | 31.1 | > 100 | 55.6 |
| COc1ccc(C(=CCC(C)C2CCC3[C@@H]4C(OC(C)=O)CC5CC(OC(C)=O)CC[C@]5(C)C4CC(OC(C)=O)[C@]23C)c2ccc(OC)cc2)cc1 (stereo partly drawn) | > 100 | > 100 | > 100 | > 100 | > 100 | > 100 | > 100 | > 100 | > 100 | > 100 |
| O=c1c2ccc(Cl)cc2oc2c(CSc3ccccc3)cccc12 | > 100 | > 100 | > 53.1 | > 100 | > 100 | > 100 | > 60.7 | > 100 | > 100 | > 100 |
| O=c1c2[nH]cnc2n(-c2ccccc2)c(=S)n1-c1ccccc1 | > 100 | > 100 | > 100 | > 100 | > 100 | > 100 | > 100 | > 100 | > 100 | > 100 |
| Cn1c(CO)ccc1-c1ccc(-c2ccc(CO)[se]2)[se]1 | > 76 | > 21 | > 86.3 | > 100 | > 100 | > 100 | > 100 | > 100 | 55.6 | > 78.1 |
| CCc1c(O)nc(Nc2nc3ccccc3[nH]2)[nH]c1=O | > 100 | > 100 | > 100 | > 100 | > 100 | > 100 | > 100 | > 100 | > 100 | > 100 |
| CCOC(=O)N1CCNCCN(C(=O)OCC)CCNCC1 | > 100 | > 100 | > 100 | > 100 | > 100 | > 100 | > 100 | > 100 | > 100 | > 100 |
| C/C(=N\NC(=S)NC(C)(C)C)c1nc2ncccc2[nH]1 | > 100 | 35.1 | 51.2 | > 84.4 | > 31.6 | > 100 | 13.6 | > 100 | > 100 | > 100 |
| C[n+]1c2ccccc2n2c3ccccc3c(NCCCn3ccnc3)c(C#N)c21 | 10.6 | – | 2.18 | > 93.5 | 6.98 | 17.4 | 24.5 | 35.5 | 8.43 | 59.5 |
| CC(=O)O[C@H]1CC[C@@H](OC(C)=O)[C@H]2[C@H](O)[C@H](O)[C@@H]1n1c(=O)n(-c3ccccc3)c(=O)n12 | > 100 | > 100 | > 100 | > 100 | > 100 | > 100 | > 100 | > 100 | > 100 | > 100 |
| NC(=O)CSc1nc2ccccc2c(=O)n1N | > 100 | – | > 100 | > 100 | > 100 | > 100 | > 100 | > 100 | > 100 | > 100 |
| Cn1c2c(c3c(=O)[nH]ncc31)Cc1ccccc1-2 | 51 | > 100 | > 100 | > 100 | 94.2 | 25.7 | 78.7 | 27.1 | 62.8 | 29.3 |
| Cc1cc(NC(=O)NC(=O)c2ccccc2NC(=O)CN(C)C)ccc1Oc1ncc(Br)cn1 | > 89.3 | > 63.8 | 10.3 | > 27.8 | > 100 | 16.2 | 10.6 | > 100 | > 100 | > 100 |
| O=C(O)[C@H]1NC[C@H]2C(Br)=NO[C@@H]12 | > 100 | > 100 | > 100 | > 100 | > 100 | > 100 | > 100 | > 100 | > 100 | > 100 |
| CC1(C)CCC[C@@]2(C)C1CC[C@@]1(CO)O[C@H](C3=CC(=O)OC3O)C[C@H]12 (stereo partly drawn) | 38.6 | 10 | 17.4 | 36.7 | > 55.6 | 50.5 | > 59.8 | 35 | 36.2 | 34.4 |
